According to patent US8507214B2, “Elisa kit for detecting lincomycin” (Beijing Kwinbon Biotechnology Co., Ltd., priority 2008, dated 2013):

Tests used:
[1] = tested on: monoclonal antibody prepared from hapten LIN-S2; experiment: Cross reaction (specificity) of the monoclonal antibody prepared from hapten LIN-S2; assay type: binding, mouse; conditions: antibody from hapten scheme LIN-S2; lincomycin = 100%
Method: (§1) When the mouse serum titer is determined as high, the spleen cells are collected and fused with SP2/0 myeloma cells at an amount ratio of 7:1. The cell supernatant is detected by indirect competitive ELISA for screening the positive wells. The cells in the positive wells are cloned via limiting dilution method until a hybridoma cell secreting monoclonal antibody is obtained. The 50% inhibitory concentration and specificity of the monoclonal antibodies prepared from the two hapten schemes above are detected.

[2] = tested on: lincomycin monoclonal antibody prepared from hapten LIN-S1; experiment: Cross reaction (specificity) of the monoclonal antibody prepared from hapten LIN-S1; assay type: binding, mouse; conditions: antibody from hapten scheme LIN-S1; lincomycin = 100%
Method: as §1

SMILES | Cross reaction [1] | Cross reaction [2]
CCC[C@@H]1C[C@@H](C(=O)N[C@@H]([C@H]2O[C@H](SC)[C@H](O)[C@@H](O)[C@H]2O)[C@@H](C)O)N(C)C1 [Lincomycin] | 100% | 100%
[H]/N=C(/N)N[C@H]1[C@H](O)[C@@H](O)[C@H](O[C@@H]2O[C@@H](C)[C@](O)(C=O)[C@H]2O[C@@H]2O[C@@H](CO)[C@H](O)[C@@H](O)[C@@H]2NC)[C@@H](N/C(N)=N\[H])[C@@H]1O [Streptomycin] | 9.2% | <1%
CC[C@H]1OC(=O)[C@H](C)[C@@H](O[C@H]2C[C@@](C)(OC)[C@@H](O)[C@H](C)O2)[C@H](C)[C@@H](O[C@@H]2O[C@H](C)C[C@H](N(C)C)[C@H]2O)[C@](C)(O)C[C@@H](C)C(=O)[C@H](C)[C@@H](O)[C@]1(C)O [Erythromycin] | <1% | <1%
CC[C@H]1OC(=O)C[C@@H](O)[C@H](C)[C@@H](O[C@@H]2O[C@H](C)[C@@H](O[C@H]3C[C@@](C)(O)[C@@H](O)[C@H](C)O3)[C@H](N(C)C)[C@H]2O)[C@@H](CC=O)C[C@@H](C)C(=O)/C=C/C(C)=C/[C@@H]1CO[C@@H]1O[C@H](C)[C@@H](O)[C@@H](OC)[C@H]1OC [Tylosin] | <1% | <1%
